In assay [1] the test system is Nicotiana benthamiana. The experiment in a line: Test Example 6: growth promotion under low-temperature stress by hydroponics of Nicotiana benthamiana (0.1 ppm). The assay is classed as in vivo. The settings on record: compound at 0.1 ppm, 7 days at 1.5±1.0° C. low-temperature stress, then 3 days at 22° C., 5 or greater = growth promotion effect, read-out: value of a relative leaf area (Equation (1), area of green leaf). Here is the method: Test Example 6. Test for Evaluating Growth Promotion Under Low-Temperature Stress by Hydroponics of Nicotiana benthamiana
(§1) (Cultivation and Compound Treatment)
(§2) A DMSO solution, which contained one of the compounds 2, 3, 7, 11 to 13, 20, 23, 24, 30, 38, 39, 41 to 43, 46, 50, 64, 68, 80, 82, 88, 93, 94, 96, 104, 107, and 112 of the present invention at a concentration of 1,000 ppm, was prepared. The DMSO solution of the compound of the present invention was added at a volume ratio of 1/1,000 to the Murashige⋅Scoog medium of a ½-fold concentration (a medium containing 2.3 g of mixed salts (manufactured by Wako Pure Chemical Industries, Ltd.), 200 mg of Myo-inositol (manufactured by Sigme-Aldrich Co. LLC.), 2 mg of niconitic acid (manufactured by Wako Pure Chemical Industries, Ltd.), 2 mg of pyridoxine hydrochloride (manufactured by Wako Pure Chemical Industries, Ltd.), 20 mg of thiamine hydrochloride (manufactured by Wako Pure Chemical Industries, Ltd.), 20 g of sucrose (manufactured by Wako Pure Chemical Industries, Ltd.), and 1 g of MCS (manufactured by DOJINDO LABORATORIES) respectively per 1 L of water and having pH adjusted to 5.8), thereby preparing a medium containing the compound of the present invention at a concentration of 0.1 ppm.
(§3) Seeds of Nicotiana benthamiana were seeded in the 5 μL of the medium and cultured overnight at 22° C. Thereafter, 45 μL of the medium containing the compound of the present invention at a concentration of 0.1 ppm was added thereto, and the seeds are cultured for 7 days at 22° C. under the conditions of an illuminance of 4,000 lux, and a day length of 16 hours, and the seedlings raised from the Nicotiana benthamiana were treated with the compound. Moreover, instead of the above medium a test plot, which was obtained by performing the same treatment by using a medium prepared by adding DMSO to the Murashige′Scoog medium of ½-fold concentration at a volume ratio of 1/1,000, was used as a control plot not treated with the compound.
(§4) (Low-Temperature Stress Treatment)
(§5) The seedlings of the Nicotiana benthamiana treated with the compound were subjected to low-temperature treatment by being cultured for 7 days at 1.5±1.0° C., under the conditions of an illuminance of 2,000 lux, and a day length of 16 hours.
(§6) The seedlings of the Nicotiana benthamiana having undergone the low-temperature stress treatment were cultured for 3 days at 22° C., under the conditions of an illuminance of 4,000 lux, and a day length of 16 hours. Thereafter, the area of green leaf was quantified by Scanalyzer HTS (manufactured by LemnaTec GmbH). Moreover, the value of the control plot not treated with the compound that had not yet been subjected to the low-temperature stress treatment was measured in the same manner. A value of a relative leaf area was calculated based on the following equation (1), and if the relative value of leaf area was 5 or greater, the compound was evaluated to have a growth promotion effect. As a result of the evaluation, it was confirmed that when the plant was treated with one of the compounds 2, 3, 7, 11 to 13, 20, 23, 24, 30, 38, 39, 41 to 43, 46, 50, 64, 68, 80, 82, 88, 93, 94, 96, 104, 107, and 112 of the present invention at 0.1 ppm, the value of a relative leaf area was 5 or greater, compared to the area of green leaf of the control plot not treated with compound. Accordingly, it was confirmed that the treatment using the compound of the present invention improve a growth promotion effect. Relative leaf area=100*(a green area of a plot treated with the compound of the present invention minus(−) a green area of a plot not treated with the compound of the present invention)/(a green area of a control plot not treated with the compound of the present invention that had not yet been subjected to low-temperature stress treatment minus(−) green area of a control plot not treated with the compound of the present invention) Equation (1): […]

Assay [2] concerns Nicotiana benthamiana. The experiment in a line: Test Example 4: growth promotion under low-temperature stress by hydroponics of Nicotiana benthamiana (10 ppm). The assay is classed as in vivo. Conditions: compound at 10 ppm, 7 days at 1.5±1.0° C. low-temperature stress, then 3 days at 22° C., 5 or greater = growth promotion effect, read-out: value of a relative leaf area (Equation (1), area of green leaf). On the procedure: Test Example 4. Test for Evaluating Growth Promotion Under Low-Temperature Stress by Hydroponics of Nicotiana benthamiana
as §1
as §2, with “compounds 4, 5, 6, 8, 14, 17, 19, 22, 26, 45, 51, 53, 57, 59, 65, 69, 70, 75, 77, 79, 91, 97, 99, 101,” for “compounds 2, 3, 7, 11 to 13, 20, 23, 24, 30, 38, 39, 41 to 43, 46, 50, 64, 68, 80, 82, 88, 93, 94, 96, 104, 107,”, “and 110” for “and 112”, “of 10,000” for “of 1,000”, “of MES” for “of MCS”, “of 10” for “of 0.1”
as §3, with “the […]” for “the 5 μL of the”, “concentration of 10 ppm was” for “concentration of 0.1 ppm was”, “at 22° C., under the” for “at 22° C. under the”, “and the seedling raised from” for “and the seedlings raised from”, “to the Murashige⋅Scoog medium of” for “to the Murashige′Scoog medium of”
as §4, §5
as §6, with “22° C., an illuminance” for “22° C., under the conditions of an illuminance”, “value of leafed area was” for “value of leaf area was”, “the compounds 4, 5, 6, 8, 14, 17, 19, 22, 26, 45, 51, 53, 57, 59, 65, […], 69, 70, 75, 77, 79, 91, 97, 99, 101, and 110” for “the compounds 2, 3, 7, 11 to 13, 20, 23, 24, 30, 38, 39, 41 to 43, 46, 50, 64, 68, 80, 82, 88, 93, 94, 96, 104, 107, and 112”, “101, and 110 of the” for “107, and 112 of the”, “invention at 10 ppm, the” for “invention at 0.1 ppm, the”, “treatment minus(−) a green area” for “treatment minus(−) green area”

Molecules are shown by their SMILES.

25 molecules from patent US9955689B2, “Method for promoting plant growth” (SUMITOMO CHEMICAL COMPANY, LIMITED, priority 2012, dated 2018) can be followed below.

Regarding `O=C(O)c1cc2cc(F)ccc2s1` [Present compound 2, 5-fluorobenzo[b]thiophene-2-carboxylic acid], the relative green leaf area at 0.1 ppm with Nicotiana benthamiana [1] was not below 5%.

Regarding `O=C(O)c1cc2cc(Cl)ccc2s1` [Present compound 6, 5-chlorobenzo[b]thiophene-2-carboxylic acid], in the assay on Nicotiana benthamiana [2], the relative green leaf area at 10 ppm is not below 5%.

For the molecule `O=C(O)c1cc2c(I)cccc2s1` [Present compound 14], the relative green leaf area at 10 ppm with Nicotiana benthamiana [2] is not below 5%.

For the molecule `O=C(O)c1cc2c([N+](=O)[O-])cccc2s1` [Present compound 17, 4-nitrobenzo[b]thiophene-2-carboxylic acid], the relative green leaf area at 10 ppm with Nicotiana benthamiana [2] was not below 5%.

For the molecule `O=C(O)c1cc2ccc([N+](=O)[O-])cc2s1` [Present compound 19, 6-nitrobenzo[b]thiophene-2-carboxylic acid], the relative green leaf area at 10 ppm in the assay with Nicotiana benthamiana [2] is not below 5%.

As to `Cc1cccc2sc(C(=O)O)cc12` [Present compound 20, 4-methylbenzo[b]thiophene-2-carboxylic acid], in the assay on Nicotiana benthamiana [1], the relative green leaf area at 0.1 ppm is not below 5%.

For `Cc1ccc2cc(C(=O)O)sc2c1` [Present compound 22], the relative green leaf area at 10 ppm in the assay with Nicotiana benthamiana [2] was not below 5%.

In the case of `Cc1cccc2cc(C(=O)O)sc12` [Present compound 23, 7-methylbenzo[b]thiophene-2-carboxylic acid], the relative green leaf area at 0.1 ppm in the assay with Nicotiana benthamiana [1] was not below 5%.

As for `Cc1c(C(=O)O)sc2ccccc12` [Present compound 24, 3-methylbenzo[b]thiophene-2-carboxylic acid], in the assay with Nicotiana benthamiana [1], the relative green leaf area at 0.1 ppm is not below 5%.

For the molecule `O=C(O)c1sc2ccccc2c1C(F)(F)F` [Present compound 26, 3-(trifluoromethyl)benzo[b]thiophene-2-carboxylic acid], the relative green leaf area at 10 ppm with Nicotiana benthamiana [2] was not below 5%.

As for `O=C(O)c1cc2cc(-c3cccnc3)ccc2s1` [Present compound 45, 5-(3-pyridyl)benzo[b]thiophene-2-carboxylic acid], the relative green leaf area at 10 ppm with Nicotiana benthamiana [2] was not below 5%.

As to `O=C(O)c1ccc2sc(C(=O)O)cc2c1` [Present compound 53, benzo[b]thiophene-2,5-dicarboxylic acid], the relative green leaf area at 10 ppm in the assay on Nicotiana benthamiana [2] is not below 5%.

Consider `O=C(c1ccccc1)c1ccc2sc(C(=O)O)cc2c1` [Present compound 57, 5-benzoylbenzo[b]thiophene-2-carboxylic acid], for which, in the assay on Nicotiana benthamiana [2], the relative green leaf area at 10 ppm is not below 5%.

As for `NC(=O)c1ccc2sc(C(=O)O)cc2c1` [Present compound 59, 5-aminocarbonylbenzo[b]thiophene-2-carboxylic acid], in the assay on Nicotiana benthamiana [2], the relative green leaf area at 10 ppm is not below 5%.

With `O=C(Nc1ccc2sc(C(=O)O)cc2c1)c1ccccc1` [Present compound 65, 5-(benzoylamino)benzo[b]thiophene-2-carboxylic acid], the relative green leaf area at 10 ppm in the assay on Nicotiana benthamiana [2] is not below 5%.

Regarding `CC(=O)Nc1c(C(=O)O)sc2ccccc12` [Present compound 69, 3-acetylamino-benzo[b]-thiophene-2-carboxylic acid], the relative green leaf area at 10 ppm in the assay on Nicotiana benthamiana [2] is not below 5%.

`O=C(O)c1cc2cc(NC(=O)C(F)(F)F)ccc2s1` [Present compound 70, 5-(trifluoroacetylamino)benzo[b]thiophene-2-carboxylic acid]: the relative green leaf area at 10 ppm in the assay with Nicotiana benthamiana [2] is not below 5%.

In the case of `Cc1ccc(S(=O)(=O)Nc2ccc3sc(C(=O)O)cc3c2)cc1` [Present compound 75, 5-[(4-methylphenylsulfonyl)amino]benzo[b]thiophene-2-carboxylic acid], the relative green leaf area at 10 ppm in the assay on Nicotiana benthamiana [2] is not below 5%.

With `O=C(O)c1cc2cc(O)ccc2s1` [Present compound 77], the relative green leaf area at 10 ppm with Nicotiana benthamiana [2] was not below 5%.

As for `O=C(O)c1cc2cccc(O)c2s1` [Present compound 79], in the assay with Nicotiana benthamiana [2], the relative green leaf area at 10 ppm was not below 5%.

As for `O=C(O)c1cc2ccc(OCc3ccc(C(F)(F)F)cc3)cc2s1` [Present compound 91, 6-(4-trifluoromethylbenzyloxy)benzo[b]thiophene-2-carboxylic acid], in the assay on Nicotiana benthamiana [2], the relative green leaf area at 10 ppm was not below 5%.

Consider `CSc1ccc2sc(C(=O)O)cc2c1` [Present compound 97, 5-methylthiobenzo[b]thiophene-2-carboxylic acid], for which, in the assay on Nicotiana benthamiana [2], the relative green leaf area at 10 ppm was not below 5%.

Turning to `O=C(O)c1cc2cc([S+]([O-])C(F)(F)F)ccc2s1` (stereo not shown) [Present compound 99, 5-(trifluoromethylsulfinyl)benzo[b]thiophene-2-carboxylic acid], in the assay with Nicotiana benthamiana [2], the relative green leaf area at 10 ppm was not below 5%.

Turning to `O=C(O)c1cc2cc(S(F)(F)(F)(F)F)ccc2s1` [Present compound 101, 5-pentafluorosulfanylbenzo[b]thiophene-2-carboxylic acid], the relative green leaf area at 10 ppm with Nicotiana benthamiana [2] is not below 5%.

In the case of `CN(C)c1c(C(=O)O)sc2ccc(C(F)(F)F)cc12` [Present compound 110, 3-(N,N-dimethylamino)-5-trifluoromethylbenzo[b]thiophene-2-carboxylic acid], the relative green leaf area at 10 ppm in the assay on Nicotiana benthamiana [2] was not below 5%.
